Reference: patent publication EP0238178B1, “Novel derivatives of erythromycylamine” (ELI LILLY AND COMPANY, priority 1986, dated 1987)
In brackets after ≈: the same amount, converted by molar mass. Read-outs that look alike come from different tables or passages of the source.

Tests used:
[1] = test system: Staphylococcus aureus X1.1; assay: MIC, standard agar-dilution assay; format: cell-based
[2] = test system: Staphylococcus aureus S13E; assay: MIC, standard agar-dilution assay; format: cell-based
[3] = test system: Staphylococcus epidermidis 222; assay: MIC, standard agar-dilution assay; format: cell-based
[4] = test system: Streptococcus pyogenes C203; assay: MIC, standard agar-dilution assay; format: cell-based
[5] = test system: Streptococcus pneumoniae Park I; assay: MIC, standard agar-dilution assay; format: cell-based
[6] = test system: Streptococcus sp. group D X66; assay: MIC, standard agar-dilution assay; format: cell-based; settings: Streptococcus sp. group D X66
[7] = test system: Streptococcus sp. group D 2041; assay: MIC, standard agar-dilution assay; format: cell-based
[8] = test system: Haemophilus influenzae C.L.; assay: MIC, standard agar-dilution assay; format: cell-based; settings: Ampicillin-sensitive strain
[9] = test system: Haemophilus influenzae 76; assay: MIC, standard agar-dilution assay; format: cell-based; settings: Haemophilus influenzae 76, Ampicillin-resistant strain
[10] = test system: Escherichia coli EC14; assay: MIC, standard agar-dilution assay; format: cell-based
[11] = test system: Staphylococcus aureus; assay: Experimental bacterial infection in mice, ED50; format: in vivo; settings: two doses, dose protecting 50% of animals; for ED50: Staphylococcus aureus
Method: (§1) The new derivatives of this invention have also shown in vivo antimicrobial activity against experimental bacterial infections. When two doses of test compound were administered to mice in experimental infections, the activity observed was measured as an EDso value [effective dose in mg/kg to protect 50% of the test animals: see Warren Wick, et al., J. Bacteriol. 81, 233-235 (1961)].

[12] = test system: Streptococcus pneumoniae; assay: Experimental bacterial infection in mice, ED50; format: in vivo; settings: two doses, dose protecting 50% of animals; for ED50: Streptococcus pneumoniae
Method: as §1

[13] = test system: Streptococcus pyogenes; assay: Experimental bacterial infection in mice, ED50; format: in vivo; settings: two doses, dose protecting 50% of animals; for ED50: Streptococcus pyogenes
Method: as §1

[14] = test system: Klebsiella pneumoniae X68; assay: MIC, standard agar-dilution assay; format: cell-based; settings: read-out: MIC
[15] = sc, subcutaneous, read-out: Subcutaneous ED50

Compound | MIC ([1]; read-out: MIC) [µg/mL] | MIC [2] [µg/mL] | MIC ([3]; read-out: MIC) [µg/mL] | MIC ([4]; read-out: MIC) [µg/mL] | MIC ([5]; read-out: MIC) [µg/mL] | MIC ([6]; read-out: MIC) [µg/mL] | MIC ([7]; read-out: MIC) [µg/mL] | MIC ([8]; read-out: MIC) [µg/mL] | MIC ([9]; read-out: MIC) [µg/mL] | MIC ([10]; read-out: MIC) [µg/mL] | ED50 ([11]; po, read-out: Oral ED50) [mg/kg] | ED50 ([12]; po, read-out: Oral ED50) [mg/kg] | ED50 ([13]; po, read-out: Oral ED50) [mg/kg] | also measured
CCCCCCN[C@@H]1[C@H](C)[C@@H](O)[C@](C)(O)[C@@H](CC)OC(=O)[C@H](C)[C@@H](O[C@H]2C[C@@](C)(OC)[C@@H](O)[C@H](C)O2)[C@H](C)[C@@H](O[C@@H]2O[C@H](C)C[C@H](N(C)C)[C@H]2O)[C@](C)(O)C[C@H]1C [Compound 6, 9-Deoxo-9-(n-hexylamino)erythromycin] | 1 (≈ 1.22 µM) | 1 (≈ 1.22 µM) | 0.25 (≈ 0.305 µM) | 0.125 (≈ 0.153 µM) | < 0.008 | 0.125 (≈ 0.153 µM) | 4 (≈ 4.88 µM) | 4 (≈ 4.88 µM) | 4 (≈ 4.88 µM) | 64 (≈ 78.1 µM) | 38.6 | 14.3 | 17.7 | 
CCCCCCCN[C@@H]1[C@H](C)[C@@H](O)[C@](C)(O)[C@@H](CC)OC(=O)[C@H](C)[C@@H](O[C@H]2C[C@@](C)(OC)[C@@H](O)[C@H](C)O2)[C@H](C)[C@@H](O[C@@H]2O[C@H](C)C[C@H](N(C)C)[C@H]2O)[C@](C)(O)C[C@H]1C [Compound 7, 9-Deoxo-9-(-n-heptylamino)erythromycin] | 0.25 (≈ 0.3 µM) |  | 0.25 (≈ 0.3 µM) | 0.015 (≈ 0.018 µM) | 0.015 (≈ 0.018 µM) | 0.06 (≈ 0.072 µM) | 2 (≈ 2.4 µM) | 1 (≈ 1.2 µM) | 2 (≈ 2.4 µM) | 64 (≈ 76.8 µM) | > 50 | 33.2 | 30.6 | 
CC[C@H]1OC(=O)[C@H](C)[C@@H](O[C@H]2C[C@@](C)(OC)[C@@H](O)[C@H](C)O2)[C@H](C)[C@@H](O[C@@H]2O[C@H](C)C[C@H](N(C)C)[C@H]2O)[C@](C)(O)C[C@@H](C)[C@H](NCC2CC=CCC2)[C@H](C)[C@@H](O)[C@]1(C)O (stereo partly drawn) [Compound 15, 9-Deoxo-9-[(1-cyclohex-4-enylmethyl)amino]erythromycin] | 1 (≈ 1.21 µM) | 1 (≈ 1.21 µM) | 0.25 (≈ 0.302 µM) | 0.06 (≈ 0.0724 µM) | < 0.008 | 0.25 (≈ 0.302 µM) | 8 (≈ 9.65 µM) | 4 (≈ 4.82 µM) | 2 (≈ 2.41 µM) | 64 (≈ 77.2 µM) | 20 | 8.7 | 14.9 | 
CC[C@H]1OC(=O)[C@H](C)[C@@H](O[C@H]2C[C@@](C)(OC)[C@@H](O)[C@H](C)O2)[C@H](C)[C@@H](O[C@@H]2O[C@H](C)C[C@H](N(C)C)[C@H]2O)[C@](C)(O)C[C@@H](C)[C@H](NCCCc2ccccc2)[C@H](C)[C@@H](O)[C@]1(C)O [Compound 17, (9S)-9-Deoxo-9-[(3-phenypropyl)amino]erythromycin] | 1 (≈ 1.17 µM) | 0.5 (≈ 0.586 µM) | 0.5 (≈ 0.586 µM) | 0.015 (≈ 0.0176 µM) | 0.015 (≈ 0.0176 µM) | 0.06 (≈ 0.0703 µM) | 2 (≈ 2.34 µM) | 2 (≈ 2.34 µM) | 2 (≈ 2.34 µM) | 128 (≈ 150 µM) | 36.9 | 17.2 | 14.1 | 
CC[C@H]1OC(=O)[C@H](C)[C@@H](O[C@H]2C[C@@](C)(OC)[C@@H](O)[C@H](C)O2)[C@H](C)[C@@H](O[C@@H]2O[C@H](C)C[C@H](N(C)C)[C@H]2O)[C@](C)(O)C[C@@H](C)[C@H](NCCCCCO)[C@H](C)[C@@H](O)[C@]1(C)O [Compound 21, 9-Deoxo-9-[(5-hydroxypentyl)amino]erythromycin] | 0.5 (≈ 0.609 µM) | 0.25 (≈ 0.304 µM) | 0.5 (≈ 0.609 µM) | < 0.008 | < 0.008 | 0.25 (≈ 0.304 µM) | 4 (≈ 4.87 µM) | 2 (≈ 2.44 µM) |  | 32 (≈ 39 µM) | > 50 | > 50 | 42.6 | MIC [14]: 128 µg/mL (≈ 156 µM)
CC[C@H]1OC(=O)[C@H](C)[C@@H](O[C@H]2C[C@@](C)(OC)[C@@H](O)[C@H](C)O2)[C@H](C)[C@@H](O[C@@H]2O[C@H](C)C[C@H](N(C)C)[C@H]2O)[C@](C)(O)C[C@@H](C)[C@H](NCCCOC)[C@H](C)[C@@H](O)[C@]1(C)O [Compound 23, (9S)-9-Deoxo-9-[(3-methoxypropyl)amino]erythromycin] | 2 (≈ 2.48 µM) | 2 (≈ 2.48 µM) | 0.5 (≈ 0.62 µM) | 0.125 (≈ 0.155 µM) | 0.03 (≈ 0.0372 µM) | 0.25 (≈ 0.31 µM) | 8 (≈ 9.91 µM) | 4 (≈ 4.96 µM) | 4 (≈ 4.96 µM) | 64 (≈ 79.3 µM) | 16.4 | 15.9 | 13.5 | ED50 [11, 15]: 3.73 mg/kg; ED50 [12, 15]: 8.3 mg/kg; ED50 [13, 15]: 2.1 mg/kg
CC[C@H]1OC(=O)[C@H](C)[C@@H](O[C@H]2C[C@@](C)(OC)[C@@H](O)[C@H](C)O2)[C@H](C)[C@@H](O[C@@H]2O[C@H](C)C[C@H](N(C)C)[C@H]2O)[C@](C)(O)C[C@@H](C)[C@H](NCCCSC)[C@H](C)[C@@H](O)[C@]1(C)O [Compound 26, 9-Deoxo-9-[[3-(methylthio)propyl]amino]erythromycin] | 0.5 (≈ 0.607 µM) | 0.25 (≈ 0.304 µM) | 0.5 (≈ 0.607 µM) | 0.015 (≈ 0.0182 µM) | 0.015 (≈ 0.0182 µM) | 0.25 (≈ 0.304 µM) | 2 (≈ 2.43 µM) | 4 (≈ 4.86 µM) | 4 (≈ 4.86 µM) | 128 (≈ 156 µM) |  | 9.2 | 7.9 | 
CCOC(=O)C1CC1CN[C@@H]1[C@H](C)[C@@H](O)[C@](C)(O)[C@@H](CC)OC(=O)[C@H](C)[C@@H](O[C@H]2C[C@@](C)(OC)[C@@H](O)[C@H](C)O2)[C@H](C)[C@@H](O[C@@H]2O[C@H](C)C[C@H](N(C)C)[C@H]2O)[C@](C)(O)C[C@H]1C (stereo partly drawn) [Compound 27, 9-Deoxo-9-[[[2-(ethoxycarbonyl)cyclopropyl]methyl]amino]erythromycin] |  |  |  |  |  |  |  |  |  |  | 50 | 30.4 | 27.1 | 
CC[C@H]1OC(=O)[C@H](C)[C@@H](O[C@H]2C[C@@](C)(OC)[C@@H](O)[C@H](C)O2)[C@H](C)[C@@H](O[C@@H]2O[C@H](C)C[C@H](N(C)C)[C@H]2O)[C@](C)(O)C[C@@H](C)[C@H](NCCCC#N)[C@H](C)[C@@H](O)[C@]1(C)O [Compound 29, 9-Deoxo-9-[(3-cyanopropyl)amino]erythromycin] |  |  |  |  |  |  |  |  |  |  | 36.1 | 28.7 | 21.1 | 
CC[C@H]1OC(=O)[C@H](C)[C@@H](O[C@H]2C[C@@](C)(OC)[C@@H](O)[C@H](C)O2)[C@H](C)[C@@H](O[C@@H]2O[C@H](C)C[C@H](N(C)C)[C@H]2O)[C@](C)(O)C[C@@H](C)[C@H](NCCC2=C(C)CCCC2(C)C)[C@H](C)[C@@H](O)[C@]1(C)O [Compound 30, 9-Deoxo-9-[[2-(2,6,6-trimethyl-1-cyclohexen-1-yl)ethyl]amino]erythromycin] |  |  |  |  |  |  |  |  |  |  | > 50 | > 50 | > 50 | 
CC[C@H]1OC(=O)[C@H](C)[C@@H](O[C@H]2C[C@@](C)(OC)[C@@H](O)[C@H](C)O2)[C@H](C)[C@@H](O[C@@H]2O[C@H](C)C[C@H](N(C)C)[C@H]2O)[C@](C)(O)C[C@@H](C)[C@H](NCCOC)[C@H](C)[C@@H](O)[C@]1(C)O [Compound 31, 9-Deoxo-9-[(2-Methoxyethyl)amino]erythromycin] |  |  |  |  |  |  |  |  |  |  | 35.2 | 18.7 | 16.3 | ED50 [11, 15]: 2.5 mg/kg; ED50 [12, 15]: 3.3 mg/kg; ED50 [13, 15]: 2.1 mg/kg
CCCN[C@@H]1[C@H](C)[C@@H](O)[C@@H](C)[C@@H](CC)OC(=O)[C@H](C)[C@@H](O[C@H]2C[C@@](C)(OC)[C@@H](O)[C@H](C)O2)[C@H](C)[C@@H](O[C@@H]2O[C@H](C)C[C@H](N(C)C)[C@H]2O)[C@](C)(O)C[C@H]1C [Compound 38] |  |  |  |  |  |  |  |  |  |  | 41 | 50 | 20.6 | 
CCCCCCCCCCN[C@@H]1[C@H](C)[C@@H](O)[C@@H](C)[C@@H](CC)OC(=O)[C@H](C)[C@@H](O[C@H]2C[C@@](C)(OC)[C@@H](O)[C@H](C)O2)[C@H](C)[C@@H](O[C@@H]2O[C@H](C)C[C@H](N(C)C)[C@H]2O)[C@](C)(O)C[C@H]1C [Compound 41] |  |  |  |  |  |  |  |  |  |  | > 50 | > 50 | > 50 | 
CC[C@H]1OC(=O)[C@H](C)[C@@H](O[C@H]2C[C@@](C)(OC)[C@@H](O)[C@H](C)O2)[C@H](C)[C@@H](O[C@@H]2O[C@H](C)C[C@H](N(C)C)[C@H]2O)[C@](C)(O)C[C@@H](C)[C@H](NCCOCCOC)[C@H](C)[C@@H](O)[C@H]1C [Compound 49] |  |  |  |  |  |  |  |  |  |  | > 50 | > 56 | 40.9 | 
Endo- and Exo-9-Deoxo-9-[(bicyclo[2.2.1]hept-2-en-5-yl-methyl)amino]erythromycin [Compound 19] |  | 2 |  |  |  |  |  |  |  |  |  |  |  | MIC [1]: 2 µg/mL; MIC [3]: 1 µg/mL; MIC [4]: 0.25 µg/mL; MIC [5]: 0.015 µg/mL; MIC [6]: 1 µg/mL; MIC [7]: 8 µg/mL; MIC [8]: 8 µg/mL; MIC [9]: 8 µg/mL; MIC [10]: 64 µg/mL; Oral ED50 ([11]; oral): >50 mg/kg; Oral ED50 ([12]; oral): 25.0 mg/kg; Oral ED50 ([13]; oral): 16.6 mg/kg
